Measurements published in article PMC3038857, “Using Nuclear Receptor Activity to Stratify Hepatocarcinogens” (PLoS ONE, 2011).

Legend:
Human ER (ESR1) = Human ER (ESR1) (Homo sapiens, UniProt P03372); experiment: NVS_NR_hER: Human ER 3H-Estradiol (cell-free HTS); type: binding; conditions: scale not given, looks like -log10 of molar active concentration, 0 = no activity
Excerpt: (§1) These are a collection of biochemical assays measuring binding constants and enzyme inhibition values. Chemicals were initially screened at a single concentration in duplicate wells at a concentration of 10 [drawing 63] M for cytochrome P-450 assays and 25 [drawing 64] M for all others. […] These assays were run by Caliper Life Sciences (Hanover, MD) under contract to EPA. Short assay descriptions are available at: http://www.caliperls.com/products/contract-research/in-vitro/.
(§2) Cell-free HTS Assays: A collection of biochemical assays measuring binding constants and enzyme inhibition values. […] These assays were run by Caliper Life Sciences (Hanover, MD) under contract to EPA. Short assay descriptions are available at http://www.caliperls.com/products/contract-research/in-vitro/. Values for all endpoints were imported into GeneData Screener (Basel, Switzerland) and normalised to solvent controls from the same plate as the tested compounds and expressed as percent of neutral control. Concentration-response curves were fit in GeneData Screener (Basel, Switzerland) Condeseo module using the Hill equation and AC50 values were determined. […] Detailed description of the methods, data and analysis methods for this dataset are described in a separate publication.

Rat Liver [1] = conditions: rat chronic study, liver, neoplastic lesion; coded 6 / 0, code not explained here; ref ToxRefDB; cited from earlier work
[2] = biological target: T1, RXRB (retinoid X receptor, beta) (Homo sapiens, UniProt P28702); experiment: ATG_RXRb_TRANS: Factorial reporter gene assay (HepG2); type: cell-based; conditions: HepG2; scale not given, looks like -log10 of molar active concentration; 0 = no activity
T1 construct: expressed in transfected cells; host or cells: HepG2
T1 sequence (P28702 1-533): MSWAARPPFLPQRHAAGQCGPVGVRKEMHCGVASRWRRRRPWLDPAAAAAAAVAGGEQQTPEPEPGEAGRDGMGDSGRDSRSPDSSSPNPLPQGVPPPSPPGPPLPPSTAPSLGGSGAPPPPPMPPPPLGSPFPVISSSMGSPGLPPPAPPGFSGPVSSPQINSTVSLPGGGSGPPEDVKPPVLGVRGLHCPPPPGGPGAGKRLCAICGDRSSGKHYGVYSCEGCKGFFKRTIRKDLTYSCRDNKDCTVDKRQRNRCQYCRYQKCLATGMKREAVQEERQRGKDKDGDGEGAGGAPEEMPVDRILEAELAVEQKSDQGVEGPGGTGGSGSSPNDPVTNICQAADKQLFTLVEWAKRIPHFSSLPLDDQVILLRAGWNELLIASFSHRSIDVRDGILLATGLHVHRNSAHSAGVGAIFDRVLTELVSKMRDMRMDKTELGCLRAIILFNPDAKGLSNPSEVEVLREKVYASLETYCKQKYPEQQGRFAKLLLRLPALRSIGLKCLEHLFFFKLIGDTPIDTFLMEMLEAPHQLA
Experimental: (§3) A multiple reporter transcription unit (MRTU) library consisting of 48 transcription factor binding sites was transfected into the HepG2 human liver hepatoma cell line. In addition to the cis-acting reporter genes (CIS), a modification of the approach was used to generate a trans-system (TRANS) with a mammalian one-hybrid assay consisting of an additional 25 MRTU library reporting the activity of nuclear receptor super-family members. […] These assays were performed by Attagene Inc. (Morrisville NC) under contract to EPA.
(§4) In addition to the cis-acting reporter genes (CIS), a modification of the approach was used to generate a trans-system (TRANS) with a mammalian one-hybrid assay consisting of an additional 25 MRTU library reporting the activity of nuclear receptor super-family members. […] Chemicals were then tested in the CIS and TRANS assays at seven concentrations starting at the MTC and followed by three-fold serial dilutions. These assays were performed by Attagene Inc. (Morrisville NC) under contract to EPA. Detailed description of the methods, data and analysis methods for this dataset will be presented in a separate publication.

PPARa (PPARA) = biological target: T2, PPARa (PPARA) (Homo sapiens, UniProt Q07869); experiment: NVS_NR_hPPARa: Human PPARa Fluormone Pan-PPAR green (cell-free HTS); type: binding; conditions: scale not given, looks like -log10 of molar active concentration, 0 = no activity
T2 sequence (Q07869 1-468): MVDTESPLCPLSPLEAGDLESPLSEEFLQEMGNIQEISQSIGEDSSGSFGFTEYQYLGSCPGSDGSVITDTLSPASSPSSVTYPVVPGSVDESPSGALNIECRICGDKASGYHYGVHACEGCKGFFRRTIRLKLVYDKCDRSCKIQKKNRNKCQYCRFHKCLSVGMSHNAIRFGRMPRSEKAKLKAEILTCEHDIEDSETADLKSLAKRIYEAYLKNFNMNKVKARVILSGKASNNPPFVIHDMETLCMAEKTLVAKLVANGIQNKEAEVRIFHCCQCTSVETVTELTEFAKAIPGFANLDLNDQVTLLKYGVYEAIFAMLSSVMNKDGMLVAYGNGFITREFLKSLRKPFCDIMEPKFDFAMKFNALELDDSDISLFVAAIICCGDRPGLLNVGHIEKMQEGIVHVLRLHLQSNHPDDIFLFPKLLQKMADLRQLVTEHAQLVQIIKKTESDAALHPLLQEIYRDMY
Excerpt: as §1, §2

PXR (NR1I2) = biological target: T3, PXR (NR1I2) (Homo sapiens, UniProt O75469); experiment: NVS_NR_hPXR: Human PXR Fluormone PXR (SXR) green (cell-free HTS); type: binding; conditions: scale not given, looks like -log10 of molar active concentration, 0 = no activity
T3 sequence (O75469 1-434): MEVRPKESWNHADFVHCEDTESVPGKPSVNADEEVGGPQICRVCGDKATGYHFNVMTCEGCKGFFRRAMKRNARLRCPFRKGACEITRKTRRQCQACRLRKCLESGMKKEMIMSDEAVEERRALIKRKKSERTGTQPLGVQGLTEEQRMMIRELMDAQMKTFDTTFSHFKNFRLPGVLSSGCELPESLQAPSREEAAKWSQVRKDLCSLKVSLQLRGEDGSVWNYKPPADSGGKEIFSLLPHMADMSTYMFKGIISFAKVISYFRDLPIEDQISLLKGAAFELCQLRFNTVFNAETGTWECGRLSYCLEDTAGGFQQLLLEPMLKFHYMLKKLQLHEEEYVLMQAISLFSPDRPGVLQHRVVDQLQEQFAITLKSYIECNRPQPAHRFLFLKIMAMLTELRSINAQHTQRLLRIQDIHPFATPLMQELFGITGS
Procedure, shortened: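 Cell-free biochemical binding assays; chemicals first screened at a single concentration of 25 […] M in duplicate wells. Signals normalised to same-plate solvent controls as percent of neutral control, and AC50 values came from Hill-equation fits of concentration-response curves.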

LXR (NR1H3) = experiment: ATG_DR4_LXR_CIS: Factorial reporter gene assay (HepG2); type: cell-based, human; set-up: scale not given here; conditions: scale not given, looks like -log10 of molar active concentration, 0 = no activity
Experimental: as §3, §4

Rat Liver [3] = conditions: rat chronic study, liver, preneoplastic lesion; coded 6 / 0, code not explained here; ref ToxRefDB; cited from earlier work

Sequence of Human ER (ESR1) (P03372 whole entry): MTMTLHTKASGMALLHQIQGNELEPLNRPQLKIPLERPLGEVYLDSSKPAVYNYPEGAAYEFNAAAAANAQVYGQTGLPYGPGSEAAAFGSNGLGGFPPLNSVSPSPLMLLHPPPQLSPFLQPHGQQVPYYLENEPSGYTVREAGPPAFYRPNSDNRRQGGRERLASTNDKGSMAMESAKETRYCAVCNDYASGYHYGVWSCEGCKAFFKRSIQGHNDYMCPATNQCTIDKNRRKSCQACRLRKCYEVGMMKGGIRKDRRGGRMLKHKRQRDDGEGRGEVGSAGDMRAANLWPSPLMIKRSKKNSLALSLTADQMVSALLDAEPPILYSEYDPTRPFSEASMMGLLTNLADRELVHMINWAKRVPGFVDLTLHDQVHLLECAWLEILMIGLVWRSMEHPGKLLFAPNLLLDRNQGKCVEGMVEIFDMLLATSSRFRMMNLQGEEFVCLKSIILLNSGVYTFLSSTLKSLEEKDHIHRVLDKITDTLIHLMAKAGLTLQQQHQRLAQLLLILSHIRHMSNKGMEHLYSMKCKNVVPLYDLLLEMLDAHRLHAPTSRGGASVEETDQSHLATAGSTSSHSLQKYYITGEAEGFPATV

Row | SMILES | NVS_NR_hER (Human ER (ESR1)) | CHR_Rat_Liver_3_NeoplasticLesion (Rat Liver [1]) | ATG_RXRb_TRANS [2] | NVS_NR_hPPARa (PPARa (PPARA)) | NVS_NR_hPXR (PXR (NR1I2)) | ATG_DR4_LXR_CIS (LXR (NR1H3)) | CHR_Rat_Liver_2_PreneoplasticLesion (Rat Liver [3])
1 | C=CCOC(=O)C(C)(C)OC(=O)c1cc(-n2c(=O)cc(C(F)(F)F)n(C)c2=O)ccc1Cl [r47] | 0 | 0 | 0 | 0 | 0 | 0 | 0
2 | CCSC(=O)N(CC(C)C)CC(C)C [r49] | 0 | 0 | 0 | 0 | 4.412 | 0 | 0
3 | CNC(=O)Oc1cccc2ccccc12 [r52] | 0 | 6 | 0 | 0 | 0 | 0 | 6
4 | CC1=C(C(=O)Nc2ccccc2)SCCO1 [r53] | 0 | 0 | 0 | 0 | 0 | 0 | 0
5 | CCOC(=O)C(Cl)Cc1cc(-n2nc(C)n(C(F)F)c2=O)c(F)cc1Cl (stereo not drawn) [r54] | 0 | 0 | 0 | 0 | 0 | 0 | 0
6 | Nc1cnn(-c2ccccc2)c(=O)c1Cl [r56] | 0 | 0 | 0 | 0 | 0 | 0 | 0
7 | CC(C)OC(=O)Nc1cccc(Cl)c1 [r59] | 0 | 0 | 0 | 0 | 0 | 0 | 6
8 | COc1nc(C)nc(NC(=O)NS(=O)(=O)c2ccccc2Cl)n1 [r62] | 0 | 0 | 0 | 0 | 0 | 0 | 0
9 | COc1nc(C)nc(NC(=O)NS(=O)(=O)c2ccccc2Cl)n1 [r63] | 0 | 0 | 0 | 0 | 0 | 0 | 0
